The values that follow come from patent US12421210B2, “Fused bicyclic heterocycles as therapeutic agents” (NEW YORK UNIVERSITY, priority 2018, dated 2025).

The target of one test is human NAMPT enzyme (His-hNAMPT) (Homo sapiens (Human), UniProt P43490). As to the kind of experiment: NAMPT enzymatic inhibition assay (fluorescence, NADH product). The format is biochemical. The note with it: [BPS]; read-out: NAMPT IC50 (μM) [BPS].
Chain of human NAMPT enzyme (His-hNAMPT) (P43490 whole entry): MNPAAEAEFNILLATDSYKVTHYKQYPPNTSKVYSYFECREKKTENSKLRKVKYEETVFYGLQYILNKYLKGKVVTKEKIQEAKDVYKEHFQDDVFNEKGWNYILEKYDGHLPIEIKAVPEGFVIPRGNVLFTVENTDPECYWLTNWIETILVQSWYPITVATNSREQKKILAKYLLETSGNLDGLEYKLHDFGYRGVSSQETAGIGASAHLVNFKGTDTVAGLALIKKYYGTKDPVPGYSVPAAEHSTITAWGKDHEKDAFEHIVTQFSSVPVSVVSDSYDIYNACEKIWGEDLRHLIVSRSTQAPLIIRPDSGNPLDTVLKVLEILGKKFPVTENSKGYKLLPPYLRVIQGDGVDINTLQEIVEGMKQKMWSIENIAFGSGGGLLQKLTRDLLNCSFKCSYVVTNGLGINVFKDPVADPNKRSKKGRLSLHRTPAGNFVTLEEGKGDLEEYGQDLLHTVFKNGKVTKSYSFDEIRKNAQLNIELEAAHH
On to `CC(C)(C)OC(=O)N1C[C@@H]2[C@H](C1)[C@H]2C(O)CNC(=O)/C=C/c1ccc(N)nc1` (stereo partly drawn) [Example 252, (1R,5S,6r)-tert-butyl 6-(2-((E)-3-(6-aminopyridin-3-yl)acrylamido)-1-hydroxyethyl)-3-azabicyclo[3.1.0]hexane-3-carboxylate], for which the IC50 is 1 to 29 µM.
`CC(C)(C)OC(=O)N1C[C@@H]2[C@H](C1)[C@H]2C(O)CNC(=O)/C=C/c1cccnc1` (stereo partly drawn) [Example 253, (1R,5S,6r)-tert-butyl 6-(1-hydroxy-2-((E)-3-(pyridin-3-yl)acrylamido)ethyl)-3-azabicyclo[3.1.0]hexane-3-carboxylate]: the 50% inhibitory concentration (IC50) was 0.01 to 0.49 µM.
On to `CC(C)(C)OC(=O)N1C[C@@H]2[C@H](C1)[C@H]2C(F)CNC(=O)/C=C/c1ccc(N)nc1` (stereo partly drawn) [Example 254, (1R,5S,6r)-tert-butyl 6-(2-((E)-3-(6-aminopyridin-3-yl)acrylamido)-1-fluoroethyl)-3-azabicyclo[3.1.0]hexane-3-carboxylate], for which the IC50 lay in the range of 0.01 to 0.49 µM.
Still for that read-out and setting: under `CC(C)(C)OC(=O)N1C[C@@H]2[C@H](C1)[C@H]2C(F)CNC(=O)/C=C/c1cccnc1` (stereo partly drawn) [Example 255, (1R,5S,6r)-tert-butyl 6-(1-fluoro-2-((E)-3-(pyridin-3-yl)acrylamido)ethyl)-3-azabicyclo[3.1.0]hexane-3-carboxylate] stands 0.01 to 0.49 µM; under `CC(C)(C)OC(=O)N1C[C@H]2C[C@@H](CNC(=O)N3Cc4ccncc4C3)C[C@H]2C1` [Example 267, tert-butyl (3aR,5r,6aS)-5-((2,3-dihydro-1H-pyrrolo[3,4-c]pyridine-2-carboxamido)methyl)hexahydrocyclopenta[c]pyrrole-2(1H)-carboxylate], 0.01 to 0.49 µM.
As to `CC(C)(C)OC(=O)N1C[C@H]2CC(CNC(=O)NCc3cccnc3)C[C@H]2C1` (stereo partly drawn) [Example 268, tert-butyl 5-((3-(pyridin-3-ylmethyl)ureido)methyl)hexahydrocyclopenta[c]pyrrole-2(1H)-carboxylate], the concentration for half-maximal inhibition (IC50) fell in the range of 0.5 to 0.99 µM.
For the compound `CC(C)(C)OC(=O)N1CCC2CC(CNC(=O)NCc3cccnc3)CC2C1` (stereo not drawn) [Example 271, tert-butyl 6-((3-(pyridin-3-ylmethyl)ureido)methyl)hexahydro-1H-cyclopenta[c]pyridine-2(3H)-carboxylate], the IC50 was in the range of 1 to 29 µM.
With `CC(C)(C)OC(=O)N1CCC2CC(CNC(=O)N3Cc4ccncc4C3)CC2C1` (stereo not drawn) [Example 272, tert-butyl 6-((2,3-dihydro-1H-pyrrolo[3,4-c]pyridine-2-carboxamido)methyl)hexahydro-1H-cyclopenta[c]pyridine-2(3H)-carboxylate], the half-maximal inhibitory concentration (IC50) lay within 0.01 to 0.49 µM.
On to `CC(C)(C)OC(=O)N1C[C@H]2C[C@H](CNC(=O)N3Cc4ccncc4C3)C[C@H]2C1` [Example 273, (3aR,5s,6aS)-tert-butyl 5-((2,3-dihydro-1H-pyrrolo[3,4-c]pyridine-2-carboxamido)methyl)hexahydrocyclopenta[c]pyrrole-2(1H)-carboxylate], for which the half-maximal inhibitory concentration (IC50) lay within 1 to 29 µM.
With `CC(C)(C)OC(=O)N1C[C@H]2C[C@@H](CCNC(=O)/C=C/c3cccnc3)C[C@H]2C1` [Example 274, (3aR,5r,6aS)-tert-butyl 5-(2-((E)-3-(pyridin-3 yl)acrylamido)ethyl)hexahydrocyclopenta[c]pyrrole-2(1H)-carboxylate], the 50% inhibitory concentration (IC50) fell in the range of 0.01 to 0.49 µM.
The same measure, in the same setting: under `CC(C)(C)OC(=O)N1C[C@H]2C[C@@H](CCNC(=O)COc3cccnc3)C[C@H]2C1` [Example 275, (3aR,5r,6aS)-tert-butyl 5-(2-(2-(pyridin-3-yloxy)acetamido)ethyl)hexahydrocyclopenta[c]pyrrole-2(1H)-carboxylate] stands 0.5 to 0.99 µM.

The test is the same for the next values; noted with them: [HDB]; read-out: NAMPT IC50 (μM) [HDB].
Take `CC(c1ccccc1)N1C[C@@H]2[C@@H](CCNC(=O)/C=C/c3cccnc3)[C@@H]2C1` (stereo partly drawn) [Example 249, (E)-N-(2-((1R,5S,6s)-3-(1-phenylethyl)-3-azabicyclo[3.1.0]hexan-6-yl)ethyl)-3-(pyridin-3-yl)acrylamide]: the half-inhibitory concentration (IC50) was in the range of 0.01 to 0.49 µM.
On the same count and under the same terms, as for `O=C(/C=C/c1cccnc1)NCC[C@@H]1[C@H]2CN(CCc3ccc(F)cc3)C[C@@H]12` [Example 250, (E)-N-(2-((1R,5S,6s)-3-(4-fluorophenethyl)-3-azabicyclo[3.1.0]hexan-6-yl)ethyl)-3-(pyridin-3-yl)acrylamide], the figure is 0.01 to 0.49 µM.
Regarding `O=C(/C=C/c1cccnc1)NCC[C@@H]1[C@H]2CN(Cc3cc(Cl)cc(Cl)c3)C[C@@H]12` [Example 251, (E)-N-(2-((1R,5S,6s)-3-(3,5-dichlorobenzyl)-3-azabicyclo[3.1.0]hexan-6-yl)ethyl)-3-(pyridin-3-yl)acrylamide], the IC50 was 0.01 to 0.49 µM.
Regarding `O=C(/C=C/c1cccnc1)NCC[C@@H]1[C@H]2CN(C(c3ccccc3)c3ccccc3)C[C@@H]12` [Example 276, (E)-N-(2-((1R,5S,6s)-3-benzhydryl-3-azabicyclo[3.1.0]hexan-6-yl)ethyl)-3-(pyridin-3-yl)acrylamide], the IC50 is less than 0.01 µM.
As to `O=C(/C=C/c1cccnc1)NCC[C@@H]1[C@H]2CN(c3nc(N4CCOCC4)ncc3F)C[C@@H]12` [Example 277, (E)-N-(2-((1R,5S,6s)-3-(5-fluoro-2-morpholinopyrimidin-4-yl)-3-azabicyclo[3.1.0]hexan-6-yl)ethyl)-3-(pyridin-3-yl)acrylamide], the 50% inhibitory concentration (IC50) is less than 0.01 µM.
The same measure, in the same setting: under `O=C(/C=C/c1cccnc1)NCC[C@@H]1[C@H]2CN(c3nc(OC4CCCC4)ncc3F)C[C@@H]12` [Example 278, (E)-N-(2-((1R,5S,6s)-3-(2-(cyclopentyloxy)-5-fluoropyrimidin-4-yl)-3-azabicyclo[3.1.0]hexan-6-yl)ethyl)-3-(pyridin-3-yl)acrylamide] stands less than 0.01 µM; under `CC(C)(C)OC(=O)N1C[C@@H]2[C@H](CCNC(=O)/C=C/c3cccnc3)[C@@H]2C1` [Example 279, (1R,5S,6r)-tert-butyl 6-(2-((E)-3-(pyridin-3-yl)acrylamido)ethyl)-3-azabicyclo[3.1.0]hexane-3-carboxylate], 0.01 to 0.49 µM.
Regarding `O=C(/C=C/c1cccnc1)NCC[C@H]1[C@H]2CN(Cc3ccccc3)C[C@@H]12` [Example 280, (E)-N-(2-((1R,5S,6r)-3-benzyl-3-azabicyclo[3.1.0]hexan-6-yl)ethyl)-3-(pyridin-3-yl)acrylamide], the concentration for half-maximal inhibition (IC50) is 0.01 to 0.49 µM.
For `O=C(/C=C/c1cccnc1)NCC[C@H]1[C@H]2CN(c3ccccc3)C[C@@H]12` [Example 281, (E)-N-(2-((1R,5S,6r)-3-phenyl-3-azabicyclo[3.1.0]hexan-6-yl)ethyl)-3-(pyridin-3-yl)acrylamide], the concentration for half-maximal inhibition (IC50) lay in the range of 0.01 to 0.49 µM.
On to `O=C(O)COc1ncc(F)c(N2C[C@@H]3[C@@H](CCNC(=O)/C=C/c4cccnc4)[C@@H]3C2)n1` [Example 282, 2-((5-fluoro-4-((1R,5S,6s)-6-(2-((E)-3-(pyridin-3-yl)acrylamido)ethyl)-3-azabicyclo[3.1.0]hexan-3-yl)pyrimidin-2-yl)oxy)acetic acid], for which the half-inhibitory concentration (IC50) was in the range of 0.01 to 0.49 µM.
For the compound `NC(=O)C(c1ccccc1)N1C[C@@H]2[C@@H](CCNC(=O)/C=C/c3cccnc3)[C@@H]2C1` (stereo partly drawn) [Example 283, (E)-N-(2-((1R,5S,6s)-3-(2-amino-2-oxo-1-phenylethyl)-3-azabicyclo[3.1.0]hexan-6-yl)ethyl)-3-(pyridin-3-yl)acrylamide], the concentration for half-maximal inhibition (IC50) was less than 0.01 µM.
On the same count and under the same terms, under `NC(=O)COc1ncc(F)c(N2C[C@@H]3[C@@H](CCNC(=O)/C=C/c4cccnc4)[C@@H]3C2)n1` [Example 285, (E)-N-(2-((1R,5S,6s)-3-(2-(2-amino-2-oxoethoxy)-5-fluoropyrimidin-4-yl)-3-azabicyclo[3.1.0]hexan-6-yl)ethyl)-3-(pyridin-3-yl)acrylamide] stands less than 0.01 µM; under `O=C(/C=C/c1cccnc1)NCC[C@@H]1[C@H]2CN(C(CO)c3ccccc3)C[C@@H]12` (stereo partly drawn) [Example 286, (E)-N-(2-((1R,5S,6s)-3-(2-hydroxy-1-phenylethyl)-3-azabicyclo[3.1.0]hexan-6-yl)ethyl)-3-(pyridin-3-yl)acrylamide], 0.01 to 0.49 µM.
Take `O=C(/C=C/c1cccnc1)NCC[C@@H]1[C@H]2CN(c3nc(-c4ccccc4)ncc3F)C[C@@H]12` [Example 287, (E)-N-(2-((1R,5S,6s)-3-(5-fluoro-2-phenylpyrimidin-4-yl)-3-azabicyclo[3.1.0]hexan-6-yl)ethyl)-3-(pyridin-3-yl)acrylamide]: the IC50 was less than 0.01 µM.
For the compound `CP(C)(=O)c1cccc(N2C[C@@H]3[C@@H](CCNC(=O)/C=C/c4cccnc4)[C@@H]3C2)c1` [Example 288, (E)-N-(2-((1R,5S,6s)-3-(3-(dimethylphosphoryl)phenyl)-3-azabicyclo[3.1.0]hexan-6-yl)ethyl)-3-(pyridin-3-yl)acrylamide], the half-maximal inhibitory concentration (IC50) was 0.01 to 0.49 µM.
Consider `O=C(/C=C/c1cccnc1)NCC[C@@]1(F)[C@@H]2CN(Cc3ccccc3)C[C@@H]21` [Example 289, (E)-N-(2-((1R,5S,6r)-3-benzyl-6-fluoro-3-azabicyclo[3.1.0]hexan-6-yl)ethyl)-3-(pyridin-3-yl)acrylamide], for which the IC50 was in the range of 0.01 to 0.49 µM.
`Nc1ccc(/C=C/C(=O)NCC[C@@]2(F)[C@@H]3CN(c4ncccn4)C[C@@H]32)cn1` [Example 290, (E)-3-(6-aminopyridin-3-yl)-N-(2-((1R,5S,6r)-6-fluoro-3-(pyrimidin-2-yl)-3-azabicyclo[3.1.0]hexan-6-yl)ethyl)acrylamide]: the 50% inhibitory concentration (IC50) was 0.01 to 0.49 µM.
Same read-out and setting: as for `CC(C)(C)OC(=O)N1C[C@@H]2[C@H](C1)[C@@]2(F)CCNC(=O)/C=C/c1cccnc1` [Example 291, (1R,5S,6r)-tert-butyl 6-fluoro-6-(2-((E)-3-(pyridin-3-yl)acrylamido)ethyl)-3-azabicyclo[3.1.0]hexane-3-carboxylate], the figure is 0.01 to 0.49 µM.
For `O=C(/C=C/c1cccnc1)NCC[C@@]1(F)[C@@H]2CN(c3nc(Cl)ncc3F)C[C@@H]21` [Example 292, (E)-N-(2-((1R,5S,6r)-3-(2-chloro-5-fluoropyrimidin-4-yl)-6-fluoro-3-azabicyclo[3.1.0]hexan-6-yl)ethyl)-3-(pyridin-3-yl)acrylamide], the IC50 was in the range of 0.01 to 0.49 µM.
